Experiment [1] addresses T1, human enzyme NAMPT (full length) (Homo sapiens, UniProt P43490).
T1 construct: human enzyme NAMPT (full length)
Description: NMN fluorescence biochemical assay (stimulation of NMN synthesis by NAMPT). As to conditions: for EC50: concentration giving half-maximal activation, read-out: Enzymatic EC50; for Enzymatic Emax: fold change of maximal activation compared to DMSO. The essentials:
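Full-length human NAMPT (100 nM) was preincubated 15 min at 37 °C with compound in 50 mM Tris-HCl pH 7.5, 10 mM MgCl2, 2 mM DTT, then reacted 1 h at 37 °C with 50 μM NAM, 100 μM PRPP, 4 mM ATP (stated solution concentrations). NMN was derivatised with acetophenone/KOH then formic acid and read at Ex/Em 382/445 nm; EC50 and Emax (fold over DMSO) reported.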

For experiment [2], the system named is endogenous NAMPT in U2OS cells. Put plainly: Cellular NAD+ modulation assay (NAD/NADH-Glo, U2OS cells). As to conditions: Homo sapiens; for maximal fold induction: read-out: Cellular Emax. Format: cell-based. The essentials:
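NAD/NADH-Glo luminescence quantified NAD+ after acid treatment (60 °C, 15 min) and neutralization of DTAB lysates. Beforehand, U2OS cells seeded 16 h earlier received compound concentration series for 24 h at 37 °C. Values given as half-maximal activation concentration (EC50) and maximal fold change versus DMSO (Emax).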

Where [3] appears, read: NMN synthesis by purified human NAMPT (100 nM).
Where [4] appears, read: 24 hours incubation with compound.
Where [5] appears, read: NMN fluorescence assay, purified human NAMPT 100 nM.
Setting [6] is: 24 hours incubation, cellular NAD+.

SMILES strings stand for the structures. Like-named read-outs stand apart in the source and are kept apart here.

T1 sequence (P43490 whole entry): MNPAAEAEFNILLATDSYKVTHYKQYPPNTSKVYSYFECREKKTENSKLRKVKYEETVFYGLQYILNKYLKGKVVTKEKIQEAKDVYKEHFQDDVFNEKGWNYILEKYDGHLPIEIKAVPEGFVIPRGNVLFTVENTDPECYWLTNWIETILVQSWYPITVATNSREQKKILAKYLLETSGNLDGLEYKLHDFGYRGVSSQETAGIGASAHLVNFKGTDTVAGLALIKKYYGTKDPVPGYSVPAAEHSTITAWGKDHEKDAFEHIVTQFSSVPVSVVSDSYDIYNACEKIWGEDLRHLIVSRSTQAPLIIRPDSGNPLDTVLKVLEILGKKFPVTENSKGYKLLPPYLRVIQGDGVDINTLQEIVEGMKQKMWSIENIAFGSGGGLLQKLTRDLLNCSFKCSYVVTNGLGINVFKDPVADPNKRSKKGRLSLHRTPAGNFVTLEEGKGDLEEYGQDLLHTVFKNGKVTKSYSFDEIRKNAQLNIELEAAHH

As to `Cn1ncc(Cl)c1CC1c2ccccc2C(=O)N1CC1CC2(CNC(=O)O2)C1` (stereo not shown) [Compound 307, 2-((1-((4-chloro-1-methyl-1H-pyrazol-5-yl)methyl)-3-oxoisoindolin-2-yl)methyl)-5-oxa-7-azaspiro[3.4]octan-6-one], the EC50 in experiment [1] (setting [3]) lay within 0.5 to 5 µM. Moreover, in experiment [1], the “Enzymatic Emax” value is listed as “B (3≥B>2)”. Further, in experiment [2] (setting [4]), the EC50 was less than 0.5 µM and the maximal fold induction was more than 1.5.

As to `O=C1c2cccc(Br)c2CN1Cc1ccc(O)cc1` [Compound 21, 4-bromo-2-(4-hydroxybenzyl) isoindolin-1-one], the EC50 in experiment [1] (setting [3]) lay in the range of 0.5 to 5 µM. Besides, the “Enzymatic Emax” value in experiment [1] is recorded as “B (3≥B>2)”. In addition, in experiment [2] (setting [4]), the EC50 fell in the range of 5 to 50 µM and the maximal fold induction is 1.2 to 1.5.

For `Cc1ccc2c(c1)CN(Cc1ccc3[nH]c(=O)oc3c1)C2=O` [Compound 48, 6-((5-methyl-1-oxoisoindolin-2-yl)methyl)benzo[d]oxazol-2(3H)-one], the EC50 in experiment [1] (setting [3]) was not below 5 µM. Moreover, the “Enzymatic Emax” value in experiment [1] was “B (3≥B>2)”. Moreover, in experiment [2] (setting [4]), the EC50 is 0.5 to 5 µM and the maximal fold induction was more than 1.5.

As for `O=C1c2ccccc2C(Cc2ncccc2Br)N1CCCc1c[nH]nn1` (stereo not shown) [Compound 347, 2-(3-(1H-1,2,3-triazol-4-yl)propyl)-3-((3-bromopyridin-2-yl)methyl)isoindolin-1-one], the EC50 in experiment [1] (setting [5]) fell in the range of 0.5 to 5 µM. Further, the “Enzymatic Emax” value in experiment [1] is “A (A>3)”. Besides, in experiment [2] (setting [6]), the EC50 fell in the range of 0.5 to 5 µM and the maximal fold induction was more than 1.5.

On to `O=C1c2c(Br)cccc2CN1Cc1ccc(O)cc1` [Compound 29, 7-bromo-2-(4-hydroxybenzyl)isoindolin-1-one], for which the EC50 in experiment [1] (setting [3]) was in the range of 0.5 to 5 µM; in experiment [2] (setting [4]) it was 5 to 50 µM. Besides, the “Enzymatic Emax” value in experiment [1] is listed as “A (A>3)”. Moreover, the maximal fold induction in experiment [2] (setting [4]) is more than 1.5.

Consider `N#Cc1ccccc1CC1c2ccccc2C(=O)N1Cc1ccc(O)cc1` (stereo not shown) [Compound 169, 2-((2-(4-hydroxybenzyl)-3-oxoisoindolin-1-yl)methyl)benzonitrile], for which the EC50 in experiment [1] (setting [3]) and in experiment [2] (setting [4]) was less than 0.5 µM each time. In experiment [1], the “Enzymatic Emax” value is recorded as “B (3≥B>2)”. In addition, the maximal fold induction in experiment [2] (setting [4]) was more than 1.5.

On to `Cn1nc(CN2CCOCC2)c(Cl)c1CC1c2ccccc2C(=O)N1CC1CC2(CNC(=O)O2)C1` (stereo not shown) [Compound 522, 2-((1-((4-chloro-1-methyl-3-(morpholinomethyl)-1H-pyrazol-5-yl)methyl)-3-oxoisoindolin-2-yl)methyl)-5-oxa-7-azaspiro[3.4]octan-6-one], for which the EC50 in experiment [1] (setting [5]) is 0.5 to 5 µM. Further, the “Enzymatic Emax” value in experiment [1] was “B (3≥B>2)”. For the same compound, in experiment [2] (setting [6]), the EC50 is 0.5 to 5 µM and the maximal fold induction was more than 1.5.

In the case of `CC1NC(=O)OC12CC(CN1C(=O)c3ccccc3C1Cc1ncccc1Br)C2` (stereo not shown) [Compound 395, 2-((1-((3-bromopyridin-2-yl)methyl)-3-oxoisoindolin-2-yl)methyl)-8-methyl-5-oxa-7-azaspiro[3.4]octan-6-one], the EC50 in experiment [1] (setting [5]) was in the range of 0.5 to 5 µM. For the same compound, the “Enzymatic Emax” value in experiment [1] is “C (2≥C)”. In experiment [2] (setting [6]), the EC50 was in the range of 0.5 to 5 µM and the maximal fold induction is more than 1.5.

For `N#Cc1ccc(Br)c(CC2c3ccccc3C(=O)N2Cc2ccc3[nH]c(=O)oc3c2)n1` (stereo not shown) [Compound 221, 5-bromo-6-((3-oxo-2-((2-oxo-2,3-dihydrobenzo[d]oxazol-6-yl)methyl)isoindolin-1-yl)methyl)picolinonitrile], the EC50 in experiment [1] (setting [3]) was less than 0.5 µM. Also, the “Enzymatic Emax” value in experiment [1] is “A (A>3)”. Also, in experiment [2] (setting [4]), the EC50 is less than 0.5 µM and the maximal fold induction was more than 1.5.

With `COc1ccc(CN2C(=O)c3ccccc3C2(C)Cc2c(Cl)cnn2C)cn1` (stereo not shown) [Compound 620, 3-((4-chloro-1-methyl-1H-pyrazol-5-yl)methyl)-2-((6-methoxypyridin-3-yl)methyl)-3-methylisoindolin-1-one], the EC50 in experiment [1] (setting [5]) is not below 5 µM. Besides, the “Enzymatic Emax” value in experiment [1] was “B (3≥B>2)”. In experiment [2] (setting [6]), the EC50 was in the range of 0.5 to 5 µM and the maximal fold induction fell in the range of 1.2 to 1.5.

For the origin of these results see US20260078130A1, “NAMPT MODULATORS, PREPARATIONS, AND USES THEREOF” (SIRONAX LTD., priority 2022, published 2026).
